According to publication PMC12152147, “DDB1 engagement defines the selectivity of S656 analogs for cyclin K degradation over CDK inhibition” (EMBO Reports, 2025):
Where “and” joins values, the source holds several entries; their conditions need not be identical. Equal entries are not always repeated.

Experiments:
Assay in all cases: Pull-down with immobilized probes and quantitative mass spectrometry
Assay type in all cases: binding, H. sapiens
[1] = target: T1, OCI-AML5 total protein extracts (cyclin K, CDKs, DDB1) (Homo sapiens, UniProt O75909); details: OCI-AML5 total protein extracts; DEP analysis
T1 construct: endogenous in cells; host or cells: OCI-AML5 total protein extract
Experimental: (§1) Probe compounds were immobilized through their terminal amine on NHS-sepharose beads as previously described (Médard et al, [2015]). The prepared beads were then washed in PBS and equilibrated in Triton X-100 buffer. For each replicate, 1–2 mg of total proteins (2 mg/ml) were incubated end-over-end with 25 μl of beads overnight at 4 °C in low protein binding microtubes (Sarstedt). The samples were then washed twice in Triton X-100 buffer, transferred to new microtubes and further washed six times in PBS including another microtube transfer at the last wash. Beads pellets were resuspended in 50 mM ammonium bicarbonate and subjected to reduction, alkylation and tryptic digest as described above. Peptides were separated on an home-made reversed-phase column (150-μm i.d. by 200 mm) with a 56-min gradient from 10 to 30% ACN-0.2% FA and a 600-nl/min flow rate on a Easy nLC-1200 connected to a Exploris 480 (ThermoFisher Scientific, San Jose, CA). Each full MS spectrum acquired at a resolution of 120,000 was followed by tandem-MS (MS-MS) spectra acquisition on the most abundant multiply charged precursor ions for 3 s. Tandem-MS experiments were performed using higher energy collision dissociation (HCD) at a collision energy of 34%. The data were processed using PEAKS X Pro (Bioinformatics Solutions, Waterloo, ON) and a Uniprot human database (20366 entries). Mass tolerances on precursor and fragment ions were 10 ppm and 0.01 Da, respectively. Fixed modification was carbamidomethyl (C). Variable selected posttranslational modifications were acetylation (N-ter), oxidation (M), deamidation (NQ), phosphorylation (STY). The data were visualized with Scaffold 5.0 (protein threshold, 99%, with at least 2 peptides identified and a false-discovery rate [FDR] of 1% for peptides).
(§2) Differential Enrichment analysis of Proteomics data (DEP) package (Zhang et al, [2018]) in R was used to analyze the data (excluding proteins identified based on a single peptide), including data filtering, normalization, imputation of missing values and statistical testing of differentially expressed proteins.

[2] = target: T2, OCI-AML5 total protein extracts (cyclin K, CDKs, DDB1) (Homo sapiens, UniProt P21439); details: protein ABCB4 (P21439)
T2 construct: endogenous in cells; host or cells: OCI-AML5 total protein extract
Experimental: as §1, §2

[3] = target: T3, OCI-AML5 total protein extracts (cyclin K, CDKs, DDB1) (Homo sapiens, UniProt P45844); details: protein ABCG1 (P45844)
T3 construct: endogenous in cells; host or cells: OCI-AML5 total protein extract
Experimental: as §1, §2

[4] = target: T4, OCI-AML5 total protein extracts (cyclin K, CDKs, DDB1) (Homo sapiens, UniProt P50750); details: OCI-AML5 total protein extracts; DEP analysis
T4 construct: endogenous in cells; host or cells: OCI-AML5 total protein extract
Experimental: as §1, §2

[5] = target: T5, OCI-AML5 total protein extracts (cyclin K, CDKs, DDB1) (Homo sapiens, UniProt Q6UXT9); details: protein ABHD15 (Q6UXT9)
T5 construct: endogenous in cells; host or cells: OCI-AML5 total protein extract
T5 sequence (Q6UXT9 24-468): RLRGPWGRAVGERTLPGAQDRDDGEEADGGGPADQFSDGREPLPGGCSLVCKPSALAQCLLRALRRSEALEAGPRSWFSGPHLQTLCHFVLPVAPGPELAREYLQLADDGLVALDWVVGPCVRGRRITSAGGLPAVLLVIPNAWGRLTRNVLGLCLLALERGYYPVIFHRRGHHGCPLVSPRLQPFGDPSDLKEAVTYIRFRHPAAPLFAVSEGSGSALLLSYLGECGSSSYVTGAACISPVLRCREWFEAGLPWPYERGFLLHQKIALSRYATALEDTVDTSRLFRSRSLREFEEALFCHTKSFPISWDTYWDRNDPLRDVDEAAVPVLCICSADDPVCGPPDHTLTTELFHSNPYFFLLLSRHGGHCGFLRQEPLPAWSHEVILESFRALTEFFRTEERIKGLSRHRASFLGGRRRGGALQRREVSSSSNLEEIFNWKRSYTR
Experimental: as §1, §2

[6] = target: T6, OCI-AML5 total protein extracts (cyclin K, CDKs, DDB1) (Homo sapiens, UniProt Q86UQ4); details: protein ABCA13 (Q86UQ4)
T6 construct: endogenous in cells; host or cells: OCI-AML5 total protein extract
Experimental: as §1, §2

[7] = target: T7, OCI-AML5 total protein extracts (cyclin K, CDKs, DDB1) (Homo sapiens, UniProt Q96IU4); details: protein ABHD14B (Q96IU4)
T7 construct: endogenous in cells; host or cells: OCI-AML5 total protein extract
T7 sequence (Q96IU4 1-210): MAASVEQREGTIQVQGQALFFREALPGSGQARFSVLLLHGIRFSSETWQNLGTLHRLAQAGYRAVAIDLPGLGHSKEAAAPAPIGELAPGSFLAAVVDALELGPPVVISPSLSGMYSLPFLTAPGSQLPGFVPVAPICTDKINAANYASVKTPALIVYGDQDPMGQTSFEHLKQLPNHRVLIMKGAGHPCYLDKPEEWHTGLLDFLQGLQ
Experimental: as §1, §2

[8] = centered abundance, competition (compe)
[9] = probe vs probe with competition
[10] = probe with competition (compe) vs UOM-005839
[11] = probe with competition (compe) vs beads

T6 sequence (Q86UQ4 whole entry): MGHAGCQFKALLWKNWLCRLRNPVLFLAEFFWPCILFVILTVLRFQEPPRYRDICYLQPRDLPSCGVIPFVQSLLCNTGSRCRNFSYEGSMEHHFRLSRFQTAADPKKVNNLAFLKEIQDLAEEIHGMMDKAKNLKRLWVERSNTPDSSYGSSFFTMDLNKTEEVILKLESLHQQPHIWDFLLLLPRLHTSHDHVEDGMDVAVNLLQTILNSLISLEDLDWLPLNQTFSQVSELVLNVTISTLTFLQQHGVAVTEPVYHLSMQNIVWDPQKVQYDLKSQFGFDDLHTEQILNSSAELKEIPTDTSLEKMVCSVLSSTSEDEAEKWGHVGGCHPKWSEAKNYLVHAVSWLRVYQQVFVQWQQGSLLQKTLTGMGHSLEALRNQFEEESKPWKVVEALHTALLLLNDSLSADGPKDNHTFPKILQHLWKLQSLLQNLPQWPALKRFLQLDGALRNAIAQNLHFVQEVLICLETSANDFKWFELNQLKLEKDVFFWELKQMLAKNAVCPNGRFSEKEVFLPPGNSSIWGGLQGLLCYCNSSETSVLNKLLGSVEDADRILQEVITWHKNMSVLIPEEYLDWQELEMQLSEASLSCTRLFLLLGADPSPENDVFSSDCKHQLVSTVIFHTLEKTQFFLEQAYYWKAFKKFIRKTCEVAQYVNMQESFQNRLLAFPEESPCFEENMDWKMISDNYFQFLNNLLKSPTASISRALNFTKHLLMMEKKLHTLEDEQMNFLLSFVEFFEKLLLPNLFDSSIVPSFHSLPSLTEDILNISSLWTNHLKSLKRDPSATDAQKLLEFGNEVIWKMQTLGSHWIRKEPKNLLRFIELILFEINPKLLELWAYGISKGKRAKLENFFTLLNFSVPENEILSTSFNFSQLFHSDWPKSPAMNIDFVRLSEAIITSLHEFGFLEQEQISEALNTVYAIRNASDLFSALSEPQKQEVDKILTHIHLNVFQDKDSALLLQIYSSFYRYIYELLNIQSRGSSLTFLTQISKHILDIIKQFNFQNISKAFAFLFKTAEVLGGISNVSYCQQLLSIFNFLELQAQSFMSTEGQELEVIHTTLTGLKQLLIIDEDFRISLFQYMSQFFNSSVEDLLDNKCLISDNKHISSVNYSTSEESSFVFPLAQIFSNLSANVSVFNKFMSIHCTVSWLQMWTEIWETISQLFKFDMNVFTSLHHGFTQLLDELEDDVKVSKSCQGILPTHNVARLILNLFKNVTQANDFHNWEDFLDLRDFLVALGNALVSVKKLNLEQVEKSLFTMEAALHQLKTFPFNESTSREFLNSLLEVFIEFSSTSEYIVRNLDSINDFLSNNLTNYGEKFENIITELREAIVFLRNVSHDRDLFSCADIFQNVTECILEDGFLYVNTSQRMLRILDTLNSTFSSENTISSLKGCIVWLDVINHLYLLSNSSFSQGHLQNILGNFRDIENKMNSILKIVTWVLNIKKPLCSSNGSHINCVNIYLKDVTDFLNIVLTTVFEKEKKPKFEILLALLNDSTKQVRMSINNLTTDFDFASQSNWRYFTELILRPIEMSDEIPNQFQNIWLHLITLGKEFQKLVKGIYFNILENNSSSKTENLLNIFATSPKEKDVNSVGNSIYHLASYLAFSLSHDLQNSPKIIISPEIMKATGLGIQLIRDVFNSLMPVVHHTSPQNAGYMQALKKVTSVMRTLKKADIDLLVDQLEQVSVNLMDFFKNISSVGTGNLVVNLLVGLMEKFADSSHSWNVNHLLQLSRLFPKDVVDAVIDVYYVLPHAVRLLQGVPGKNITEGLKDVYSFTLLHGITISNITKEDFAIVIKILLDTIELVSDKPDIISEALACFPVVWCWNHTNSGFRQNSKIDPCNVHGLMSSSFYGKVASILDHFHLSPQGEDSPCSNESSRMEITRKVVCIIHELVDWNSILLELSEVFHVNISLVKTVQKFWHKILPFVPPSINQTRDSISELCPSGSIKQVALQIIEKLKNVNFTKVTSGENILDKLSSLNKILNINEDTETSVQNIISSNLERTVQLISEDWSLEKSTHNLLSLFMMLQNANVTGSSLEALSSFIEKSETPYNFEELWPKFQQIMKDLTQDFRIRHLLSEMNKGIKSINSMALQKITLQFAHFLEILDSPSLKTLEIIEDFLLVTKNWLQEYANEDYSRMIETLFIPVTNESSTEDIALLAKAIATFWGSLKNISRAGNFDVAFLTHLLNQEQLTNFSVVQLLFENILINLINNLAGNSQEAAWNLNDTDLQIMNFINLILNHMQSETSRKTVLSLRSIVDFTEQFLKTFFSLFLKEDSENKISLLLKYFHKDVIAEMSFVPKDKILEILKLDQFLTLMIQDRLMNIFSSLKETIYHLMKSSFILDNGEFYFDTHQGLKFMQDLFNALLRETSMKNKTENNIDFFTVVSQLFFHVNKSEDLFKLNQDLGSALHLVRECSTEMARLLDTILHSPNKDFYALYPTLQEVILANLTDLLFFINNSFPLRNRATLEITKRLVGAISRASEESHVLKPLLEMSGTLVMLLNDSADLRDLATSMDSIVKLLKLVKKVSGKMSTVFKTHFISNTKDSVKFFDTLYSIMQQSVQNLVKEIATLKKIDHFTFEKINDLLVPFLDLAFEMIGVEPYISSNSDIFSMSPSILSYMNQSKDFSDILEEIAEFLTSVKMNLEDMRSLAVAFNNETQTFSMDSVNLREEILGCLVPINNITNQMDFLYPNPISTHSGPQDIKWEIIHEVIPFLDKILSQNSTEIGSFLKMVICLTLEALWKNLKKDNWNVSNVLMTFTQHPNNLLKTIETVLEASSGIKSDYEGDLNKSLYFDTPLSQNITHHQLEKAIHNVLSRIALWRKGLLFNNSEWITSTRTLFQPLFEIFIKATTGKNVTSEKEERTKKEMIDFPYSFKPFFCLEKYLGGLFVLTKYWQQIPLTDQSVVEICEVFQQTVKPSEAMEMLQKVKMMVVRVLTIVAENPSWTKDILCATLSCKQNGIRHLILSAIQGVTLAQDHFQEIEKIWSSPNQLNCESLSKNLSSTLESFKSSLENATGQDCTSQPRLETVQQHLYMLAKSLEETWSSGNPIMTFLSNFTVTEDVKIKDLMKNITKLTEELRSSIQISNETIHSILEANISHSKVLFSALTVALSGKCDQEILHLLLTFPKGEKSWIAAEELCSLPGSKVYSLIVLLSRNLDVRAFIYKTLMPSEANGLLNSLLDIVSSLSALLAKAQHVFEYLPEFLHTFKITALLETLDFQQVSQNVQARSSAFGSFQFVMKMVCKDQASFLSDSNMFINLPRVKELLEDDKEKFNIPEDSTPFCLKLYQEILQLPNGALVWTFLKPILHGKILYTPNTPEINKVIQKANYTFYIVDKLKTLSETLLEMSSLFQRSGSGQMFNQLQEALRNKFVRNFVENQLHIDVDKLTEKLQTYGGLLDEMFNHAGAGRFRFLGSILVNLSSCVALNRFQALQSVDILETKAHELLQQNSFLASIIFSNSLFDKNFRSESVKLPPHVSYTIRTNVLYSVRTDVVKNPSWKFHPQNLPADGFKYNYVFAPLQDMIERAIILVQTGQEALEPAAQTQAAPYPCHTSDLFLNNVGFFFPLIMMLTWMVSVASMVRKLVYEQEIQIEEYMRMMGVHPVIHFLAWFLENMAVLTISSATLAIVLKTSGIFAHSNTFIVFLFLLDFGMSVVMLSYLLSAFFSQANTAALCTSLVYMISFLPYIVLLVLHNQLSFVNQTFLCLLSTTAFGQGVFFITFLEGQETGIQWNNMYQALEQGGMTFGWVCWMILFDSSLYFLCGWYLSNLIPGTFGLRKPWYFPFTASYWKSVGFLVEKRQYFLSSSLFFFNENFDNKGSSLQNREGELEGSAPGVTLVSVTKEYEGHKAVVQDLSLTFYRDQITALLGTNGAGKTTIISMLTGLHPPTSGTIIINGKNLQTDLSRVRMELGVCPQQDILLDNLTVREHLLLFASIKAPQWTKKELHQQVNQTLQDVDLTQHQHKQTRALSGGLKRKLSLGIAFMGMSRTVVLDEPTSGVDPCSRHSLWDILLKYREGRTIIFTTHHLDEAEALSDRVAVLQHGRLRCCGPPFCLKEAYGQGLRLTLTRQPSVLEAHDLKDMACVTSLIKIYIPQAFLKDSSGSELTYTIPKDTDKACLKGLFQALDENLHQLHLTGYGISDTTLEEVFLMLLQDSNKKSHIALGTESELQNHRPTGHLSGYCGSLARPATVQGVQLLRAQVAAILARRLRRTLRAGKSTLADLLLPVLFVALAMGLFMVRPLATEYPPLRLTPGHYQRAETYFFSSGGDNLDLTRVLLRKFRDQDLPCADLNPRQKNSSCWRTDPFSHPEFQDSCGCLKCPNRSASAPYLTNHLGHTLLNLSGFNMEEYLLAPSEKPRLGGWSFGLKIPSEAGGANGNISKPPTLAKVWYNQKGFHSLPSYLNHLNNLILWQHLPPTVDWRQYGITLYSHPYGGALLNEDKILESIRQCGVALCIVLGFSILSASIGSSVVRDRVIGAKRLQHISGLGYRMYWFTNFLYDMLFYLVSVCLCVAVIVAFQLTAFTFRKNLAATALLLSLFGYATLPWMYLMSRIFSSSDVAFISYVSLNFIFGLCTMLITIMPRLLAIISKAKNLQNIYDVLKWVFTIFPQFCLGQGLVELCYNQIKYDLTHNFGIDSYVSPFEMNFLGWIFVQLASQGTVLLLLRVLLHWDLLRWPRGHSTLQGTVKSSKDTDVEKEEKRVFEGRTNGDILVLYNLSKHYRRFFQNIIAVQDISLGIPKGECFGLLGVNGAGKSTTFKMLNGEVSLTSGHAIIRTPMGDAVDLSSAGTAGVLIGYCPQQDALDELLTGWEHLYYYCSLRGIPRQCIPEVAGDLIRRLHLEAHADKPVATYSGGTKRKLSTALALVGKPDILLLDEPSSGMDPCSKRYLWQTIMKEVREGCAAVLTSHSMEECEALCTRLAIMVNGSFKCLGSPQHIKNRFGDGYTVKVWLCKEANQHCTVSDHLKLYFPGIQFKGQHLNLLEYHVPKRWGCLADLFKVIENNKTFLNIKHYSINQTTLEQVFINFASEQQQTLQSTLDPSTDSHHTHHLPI

CN(CCOCCOCCN)c1ccc(CC(=O)Nc2ncc(SCc3cccnc3)s2)cc1 [UOM-005790]
pull-down enrichment of Cyclin K [1]: 2.779 and 2.982 and 2.894 | UOM-005790_centered ([2]; centered abundance): -2.58 | UOM-005790compe_centered [2, 8]: -1.22 | UOM-005790_vs_Beads_ratio ([2]; immobilized probe vs beads): -5.48 | UOM-005790_vs_UOM-005839_ratio ([2]; probe vs probe UOM-005839): -3.49 | UOM-005790_vs_UOM-005790compe_ratio [2, 9]: -1.36 | UOM-005790compe_vs_UOM-005839_ratio [2, 10]: -2.12 | UOM-005790compe_vs_Beads_ratio [2, 11]: -4.12 | UOM-005790_centered ([3]; centered abundance): 2.21 | UOM-005790compe_centered [3, 8]: 1.7 | UOM-005790_vs_Beads_ratio ([3]; immobilized probe vs beads): 4.82 | UOM-005790_vs_UOM-005839_ratio ([3]; probe vs probe UOM-005839): 3.51 | UOM-005790_vs_UOM-005790compe_ratio [3, 9]: 0.512 | UOM-005790compe_vs_UOM-005839_ratio [3, 10]: 3 | UOM-005790compe_vs_Beads_ratio [3, 11]: 4.31 | pull-down enrichment of CDK9 [4]: 2.785 and 2.837 and 2.887 | UOM-005790_centered ([5]; centered abundance): 1.53 | UOM-005790compe_centered [5, 8]: 1.26 | UOM-005790_vs_Beads_ratio ([5]; immobilized probe vs beads): 5.2 | UOM-005790_vs_UOM-005839_ratio ([5]; probe vs probe UOM-005839): 0.645 | UOM-005790_vs_UOM-005790compe_ratio [5, 9]: 0.275 | UOM-005790compe_vs_UOM-005839_ratio [5, 10]: 0.37 | UOM-005790compe_vs_Beads_ratio [5, 11]: 4.93 | UOM-005790_centered ([6]; centered abundance): 0.56 | UOM-005790compe_centered [6, 8]: -0.869 | UOM-005790_vs_Beads_ratio ([6]; immobilized probe vs beads): 0.378 | UOM-005790_vs_UOM-005839_ratio ([6]; probe vs probe UOM-005839): 0.434 | UOM-005790_vs_UOM-005790compe_ratio [6, 9]: 1.43 | UOM-005790compe_vs_UOM-005839_ratio [6, 10]: -0.995 | UOM-005790compe_vs_Beads_ratio [6, 11]: -1.05 | UOM-005790_centered ([7]; centered abundance): 1.19 | UOM-005790compe_centered [7, 8]: 1.42 | UOM-005790_vs_Beads_ratio ([7]; immobilized probe vs beads): 4.31 | UOM-005790_vs_UOM-005839_ratio ([7]; probe vs probe UOM-005839): 0.69 | UOM-005790_vs_UOM-005790compe_ratio [7, 9]: -0.227 | UOM-005790compe_vs_UOM-005839_ratio [7, 10]: 0.916 | UOM-005790compe_vs_Beads_ratio [7, 11]: 4.54
